Source: US20210401880A1, “Pharmaceutical Composition For Preventing Or Treating Obesity, Containing CYCLO(HIS-PRO) As Active Ingredient” (Novmetapharma Co., Ltd., priority 2018, published 2021)

Columns and labels:
Format in all cases: in vivo, human
leptin = test: Clinical trial: plasma leptin level (leptin resistance)
Method: (§1) We conducted a clinical trial designed as randomized, placebo-controlled, double-blind, and two-way crossover on drug interaction in patients with type 2 diabetes mellitus. The clinical trial was conducted for 149 patients over a total of 16 weeks, in which the screening period was 2 weeks, the treatment period was 12 weeks, and the period of the evaluation of safety and follow-up was 2 weeks.
(§2) In the screening stage, 64 subjects were selected from 149 participants, and the subjects who met the selection criteria were fasted for 2 hours before and after breakfast each day and subjected to a 2-week evaluation process of measuring and recording blood glucose levels. In the treatment stage, capsules containing placebo or CHP with different doses were randomly administered to 64 selected subjects once a day for 12 consecutive weeks.
(§3) In the above experiment, a capsule containing CHP with a different dose or a placebo corresponding thereto was used, and each subject received a two-week dose (18 capsules=14+4) at one visit and was instructed to take 1 capsule before bedtime every day. In this case, the anti-diabetic drugs and other prescribed drugs currently being used were continuously taken. Each subject was assigned at the same rate as follows and administered with a placebo or a compound with a different dose, respectively. • Administration Group A: 3 mg of CHP+23 mg of zinc—16 subjects • Administration Group B: 9 mg of CHP+23 mg of zinc—16 subjects • Administration Group C: 15 mg of CHP+23 mg of zinc—16 subjects • Administration Group D: placebo (control)—16 subjects
(§4) The present inventors confirmed the improvement of body mass index (BMI) and the improvement of leptin resistance, and the results are shown in Tables 3 and 4.
Leptin is an appetite suppressing protein secreted from adipose cells, and is known as a hormone to act on the brain after being secreted from adipose tissue to suppress appetite and activate metabolism in the body, thereby reducing body weight. In the case of humans, the more obese people (the more adipose tissue), the higher the concentration of leptin in the blood. This indicates the resistance to leptin action.

[1] = Clinical trial: change in body weight over 12 weeks
Method: as §1, §2, §3
The present inventors observed the change in body weight of subjects through the 12-week experiment, and the results are shown in Table 2 and FIG. 2.

[2] = tested on: glycated hemoglobin (HbA1c); test: Clinical trial: change in concentration of glycated hemoglobin (HbA1c) over 12 weeks
Method: as §1, §2, §3
The present inventors observed the change in concentration of HbA1c during the 12-week dosing period. Since the blood glucose level measured at one time point can change due to various factors, the change in glycated hemoglobin (HbA1c) was checked for the purpose of determining the pattern of long-term glycemic control, and the results are shown in Table 1 and FIG. 1.

[3] = tested on: patients with type 2 diabetes mellitus; test: Clinical trial: evaluation of safety; details: CHP administration groups (3, 9, 15 mg of CHP+23 mg of zinc once a day, 12 weeks) vs placebo
Method: as §1, §2
In the above experiment, a capsule containing CHP with a different dose or a placebo corresponding thereto was used, and each subject received a two-week dose (18 capsules=14+4) at one visit and was instructed to take 1 capsule before bedtime every day. In this case, the anti-diabetic drugs and other prescribed drugs currently being used were continuously taken. […]

[4] = Clinical trial: improvement of body mass index (BMI)
Method: as §1, §2, §3, §4

[5] = Administration Group A: 3 mg of CHP+23 mg of zinc once a day
[6] = Administration Group A: 3 mg of CHP+23 mg of zinc once a day, Baseline (Week 0)
[7] = Administration Group A: 3 mg of CHP+23 mg of zinc once a day, Week 12
[8] = Administration Group B: 9 mg of CHP+23 mg of zinc once a day
[9] = Administration Group B: 9 mg of CHP+23 mg of zinc once a day, Baseline (Week 0)
[10] = Administration Group B: 9 mg of CHP+23 mg of zinc once a day, Week 12
[11] = Administration Group C: 15 mg of CHP+23 mg of zinc once a day
[12] = Administration Group C: 15 mg of CHP+23 mg of zinc once a day, Baseline (Week 0)
[13] = Administration Group C: 15 mg of CHP+23 mg of zinc once a day, Week 12
[14] = all patient groups receiving CHP (3, 9, 15 mg+23 mg of zinc), 12 weeks

SMILES: O=C1NC(Cc2c[nH]cn2)C(=O)N2CCCC12 (centres unmarked) [CHP, cyclo(his-pro)]
- Plasma leptin level, Change Value (From Week 0 to Week 12), Average (leptin; [5]): 0.59
- Plasma leptin level, Average (leptin; [6]): 10.93
- Plasma leptin level, Average (leptin; [7]): 9.66
- Plasma leptin level, Change Value (From Week 0 to Week 12), Average (leptin; [8]): −3.42
- plasma leptin level at week 12 compared to the reference value (leptin; [8]): reduced to a statistically significant level
- Plasma leptin level, Average (leptin; [9]): 19.85
- Plasma leptin level, Average (leptin; [10]): 9.90
- Plasma leptin level, Change Value (From Week 0 to Week 12), Average (leptin; [11]): −3.39
- plasma leptin level at week 12 compared to the reference value (leptin; [11]): reduced to a statistically significant level
- Plasma leptin level, Average (leptin; [12]): 12.93
- Plasma leptin level, Average (leptin; [13]): 10.59
- Body weight, Change Value (From Week 0 to Week 12), Average [1, 5]: -0.73 kg
- Body weight, Average [1, 6]: 109.11 kg
- Body weight, Average [1, 7]: 108.28 kg
- Body weight, Average [1, 9]: 103.56 kg
- Body weight, Average [1, 10]: 105.19 kg
- Body weight, Change Value (From Week 0 to Week 12), Average [1, 11]: -0.92 kg
- body weight over time (FIG. 2) [1, 11]: reduced consistently until week 12
- Body weight, Average [1, 12]: 103.94 kg
- Body weight, Average [1, 13]: 104.12 kg
- weight gain / body weight compared to the control [1, 14]: less than the control, or the body weight was reduced
- HbA1c, Change Value (From Week 0 to Week 12), Average [2, 5]: −0.21%
- level of HbA1c at week 12 versus Administration Group D (control) [2, 5]: lower than that of Administration Group D
- HbA1c, Average ([2]; Administration Group A: 3 mg of CHP+23 mg of zinc once a day, Baseline (Week 0), type 2 diabetes patients): 8.25%
- HbA1c, Average [2, 7]: 8.04%
- HbA1c, Change Value (From Week 0 to Week 12), Average [2, 8]: −0.17%
- level of HbA1c at week 12 versus Administration Group D (control) [2, 8]: lower than that of Administration Group D
- HbA1c, Average [2, 9]: 8.06%
- HbA1c, Average [2, 10]: 7.90%
- HbA1c, Change Value (From Week 0 to Week 12), Average [2, 11]: −0.43%
- level of HbA1c over time (FIG. 1) [2, 11]: reduced consistently until week 8
- HbA1c, Average [2, 12]: 8.49%
- HbA1c, Average [2, 13]: 8.08%
- level of HbA1c compared to the control [2, 14]: reduced compared to the control
- side effects (evaluation of safety) [3]: mild and moderate side effects that are not related to the CHP were observed
- Body mass index (BMI), Change Value (From Week 0 to Week 12), Average [4, 5]: −0.27 kg/m^2
- Body mass index (BMI), Average [4, 6]: 37.18 kg/m^2
- Body mass index (BMI), Average [4, 7]: 36.45 kg/m^2
- Body mass index (BMI), Change Value (From Week 0 to Week 12), Average [4, 8]: 0.16 kg/m^2
- Body mass index (BMI), Average [4, 9]: 36.29 kg/m^2
- Body mass index (BMI), Average [4, 10]: 36.59 kg/m^2
- Body mass index (BMI), Change Value (From Week 0 to Week 12), Average [4, 11]: −0.28 kg/m^2
- Body mass index (BMI), Average [4, 12]: 37.23 kg/m^2
- Body mass index (BMI), Average [4, 13]: 37.48 kg/m^2
